Experimental data reported in patent US20240336658A1, “CYCLIC PEPTIDE AND PREPARATION METHOD AND USE THEREOF” (HANGZHOU HUIBO SCIENCE AND TECHNOLOGY CO., LTD, priority 2021, published 2024).
Entries after “also recorded” stand apart in the source; their conditions may differ. Where two headings read alike, the source gives them in different places.

Tests used:
[1] = tested on: full-thickness skin defect wound surfaces; assay: Effect of Hst1-MAD cyclic peptide on wound repair in mice (Example 22): healing rate, histology, immunohistochemistry, immunofluorescence double staining, Western Blot; type: in vivo, C57 BL/6 mice
Protocol: […]. 36 healthy male special pathogen-free grade C57 BL/6 mice (purchased from Guangdong Experimental Animal Center) of 6-8 weeks old and weighing 22-28 g. They were intraperitoneally injected with 5 ml/kg of 1% pentobarbital sodium for anesthesia. After the mice had no corneal reflex, the hair on their backs was carefully removed and disinfected with alcohol. […] full-thickness skin defect wound surfaces were prepared on the back of each mouse by using a circular skin punch. […]. Each wound surface was added with 0.5 ml of four drugs respectively, and administration was conducted every day until the wound surfaces of the experimental groups healed. Photographs were taken on days 0, 3, 5, and 10 after surgery, and wound tissues were sampled on days 3, 5, and 10 for subsequent pathological staining.
was observed and photographed with a digital camera (see FIG. 19), and the wound healing rate was calculated (see FIG. 20). Wound healing rate=(wound area immediately after injury−unhealed wound area at each time point)÷wound area immediately after injury×100%.
The wound specimens were fixed in 4% paraformaldehyde for 48 hours, rinsed with tap water for 10 minutes, dehydrated with graded ethanol, permeabilized with xylene, and embedded in paraffin to prepare 4 μm thick sections. Some sections were taken and subjected to HE staining to detect an epidermal thickness and subjected to Masson staining to detect newly grown collagen. Through hematoxylin-cosin staining (HE), the effects of the four groups of drugs on newly grown epidermal at the wound surface on day 10 were evaluated (FIGS. 21 and 22). Through Masson staining, the effects of the four groups of drugs on newly grown collagen at the wound surface on days 5 and 10 were evaluated (FIGS. 23 and 24). 5 sections were taken from each mouse, and 5 fields of view were selected for each section. Data analysis was performed using the software Image-pro Plus.
and rehydrated, subjected to antigen thermal repair with a 0.1 mol/L citric acid buffer (with a pH value of 6.0) for 20 minutes, treated with hydrogen peroxide with a volume fraction of 10% for inactivation of endogenous peroxidase for 10 minutes, and blocked with 50 g/L of bovine serum albumin for 2 hours. It was added with a rabbit anti-mouse CD31 primary antibody (with a dilution ratio of 1:300) and a mouse anti-VEGF (with a dilution ratio of 1:100), incubated overnight at 4° C., and washed with PBS. It was rewarmed for 1 hour, washed with PBS, added dropwise with ready-to-use biotinylated goat anti-mouse and goat anti-rabbit IgG secondary antibodies, incubated for 2 hours, and washed with PBS. It was subjected to DAB development, hematoxylin counterstaining. gradient ethanol dehydration, xylene permeabilization, and resin blocking. 5 sections were taken from each mouse, and 5 fields of view were selected for each section. The sections were observed under a 400× inverted fluorescence microscope, and analyzed for the number of CD31-positive blood vessels (see FIG. 25) and VEGF expression amounts (see FIG. 26) by using Image-pro Plus software.
The specific steps were: the previous steps were the same as those of 1.3.3, and they were incubated with the antibodies MHCII (orb101661; 1:500; Biorbyt Biotechnology Co., Ltd., Wuhan, CN), CD11c (97585; 1:200; Cell Signaling Technology Inc., Boston, MA), CD68 (GB11067; 1:300; Servicebio Inc.), CD80 (GB11034; 1:300; Servicebio Inc.), CD206 (GB11062; 1:500; Servicebio Inc.), claudin1 (37-4900; 1:100; Thermo Fisher Scientific Co., Ltd, Shanghai, CN) and claudin2 (32-5600; 1:200; Thermo Fisher Scientific Co., Ltd.) at 4° C. overnight. The fluorescent-labeled secondary antibodies were incubated at room temperature for 1 h, followed by 4′,6-diamidino-2′-phenylindole (DAPI) (G1012; Google Biotechnology Co., Ltd., Wuhan, CN). The stained sections were photographed by using a fluorescence microscope (Nikon Eclipse TI-SR. Tokyo, Japan). […]

[2] = tested on: fibroblasts (NIH/3T3); assay: Scratch experiment, Hst1-MAD cyclic peptides (Example 23); type: cell-based; settings: dose required to achieve the same pharmaceutical effect in the scratch experiment
Excerpt: In this example, the propargylglycine-Hst1-MAD cyclic peptide, the homopropargylglycine-Hst1-MAD cyclic peptide, the dihomopropargylglycine-Hst1-MAD cyclic peptide and the linear Hst1 prepared in Examples 13, 14, and 15, and the Hst1-MAD head-to-tail cyclic peptide or N-terminal and C-terminal cyclized peptide prepared by the amide bond cyclization method provided by the literature of for example Sortase A as a tool for high-yield histatin cyclization, Jan G. M. Bolscher, The FASEB Journal. Research Communication, were adopted respectively, the reaction time was recorded, the yield of the reaction product was detected by HPLC, the proportion of side reactions in the reaction product was calculated, and activity comparison was performed. The activity comparison method was to calculate the dose required to achieve the same pharmaceutical effect through a scratch experiment. […] After 12 hours and 24 hours of culture, the scratched area of each group was calculated by using imageJ (Rawak Software, Inc. Germany) software, and the scratch area at 0 hour was an initial scratch area. The scratch healing rate was calculated in the following manner: W % (scratch healing rate)=(W0−Wt)/W0×100%, where W0=an initial scratch area, and Wt=a remaining scratch area; and the results were as shown in Table 14.

Cyclized Hst1 prepared by Sortase A enzymatic method
ring closure, conversion (enzyme bond, Sortase A): 90%

Hst1 cyclized through amide bonds
ring closure, conversion (amide bond): 3%

Linear Hst1-MAD: shortest sequence that maintains Hst1 activity, 20th to 32nd amino acids of Hst1, SEQ ID NO.13 (SHREFPFYGDYGS)
inhibitory effects on inflammatory factors IL-6 and MIP-1β ([1]; Western Blot, 1 μM Click-Hst1-MAD, 1 μM Hst1-MAD): significantly better than those of the control group and the 10 μM Histatin1 group | expression levels of Nrf2 and HO-1 ([1]; day 3 after surgery, Western Blot, 1 μM Click-Hst1-MAD, 1 μM Hst1-MAD): increased compared with those in the Control group | VEGF expression amount ([1]; day 5, 1 μM Click-Hst1-MAD, 10 μM Histatin1, 1 μM Hst1-MAD compared with each other): comparable | expression levels of the dermal collagen ([1]; day 5, 1 μM Hst1-MAD and 10 μM Histatin1 compared with each other): equivalent | epidermal thickness at the wound surface ([1]; day 10, HE staining, 1 μM Click-Hst1-MAD, 1 μM Hst1-MAD, 10 μM Histatin1): thinnest epidermal thickness | Claudin1 expression intensity ([1]; day 10, immunofluorescence, 1 μM Click-Hst1-MAD, 1 μM Hst1-MAD, 10 μM Histatin1): equivalent expression level of Claudin1 | healing rate of the wound surface ([1]; days 3 and 5, 1 μM Click-Hst1-MAD, 1 μM Hst1-MAD linear peptide, 10 μM Histatin1): equivalent to that of the 10 μM Histatin linear peptide group | number of dendritic cells (MHCII+ and CD11c+) ([1]; days 3 and 5 evaluated, 1 μM Click-Hst1-MAD, 1 μM Hst1-MAD, 10 μM Histatin1): slightly lower than that of the 10 μM Histatin1 group; also recorded: significantly higher than that in the Control group | number of M1 macrophages (CD68+ and CD80+) ([1]; days 3 and 5 evaluated, 1 μM Hst1-MAD, 10 μM Histatin1): slightly higher than that in the 10 μM Histatin1 group; also recorded: lower than that in the Control group | number of CD31-positive blood vessels ([1]; days 5 and 10, immunohistochemistry, 1 μM Click-Hst1-MAD, 1 μM Hst1-MAD, 10 μM Histatin1): significantly higher than that in the Control group | Dosage of agents required for scratch test [2]: 8 µM
